According to US9862754B2, “Peptide analogs for treating diseases and disorders” (KeyBioscience AG, priority 2011, dated 2018):

Columns and labels:
[1] = Example 3: OGTT after 3 days of oral treatment in DIO rats; format: in vivo, rat; conditions: doses of 0.5, 1 and 2 mg/kg p.o.
Procedure: Drug administration were given by per oral (p.o.) gavage b.i.d. during the study period and as single dose in the morning prior to start of OGTT.
Animals were given 2 g/kg single dose dissolved in milliQ H20.
Following the initial (1st) OGTT, animals were randomized into treatment groups based on FBG and BW. Animals were pre-treated 3 days (b.i.d.) prior to 2nd OGTT. The study was performed in an x-over design with each animal being its own control.
OGTT Following Overnight Fasting (16 h):
Blood sampling and glycemia were measured by heated tail venous puncture. Whole blood glucose levels were determined with an ACCU-CHEK® Avia blood glucose meter (Roche Diagnostics, Rotkreuz, Switzerland). Blood (approx 300 μl) is collected in 1 ml MiniCollect K3EDTA plasma-tube (Greiner-Bio-One GmbH, Frickenhausen, Germany), inverted, and stored on ice. Tubes are centrifuged 3000×g (5000 rpm in table centrifuge) for 10 min at 4° C. and plasma obtained. Plasma samples are stored at −20° C. until analysis. A total of ˜2.5 ml blood is obtained during OGTT (˜0.3% of body weight).
Statistical analysis was performed by one-way ANOVA followed by the Dunnett's post hoc test for multiple comparison. Student's t-test was performed to compare two paired group. All analysis was performed using GRAPHPAD PRISM software (GraphPad Prism, San Diego, Calif. U.S.A). Incremental area under curve (iAUC) during OGTT was calculated by the trapezoidal method. A value of P<0.05 was considered to be significant. All data are presented as mean±standard error of the mean (SEM).
FIG. 10A, FIG. 10B, FIG. 10C, FIG. 10D, FIG. 10E, and FIG. 10F show the effect of oral sCT versus oral UGPs on glucose tolerance during OGTT in DIO rats. Three different doses of oral sCT/UGP284/UGP298/UGP302 containing 0.5, 1 and 2 mg/kg compound were applied by gavage twice daily to 4 groups of rats for 3 days prior to OGTT. The experimental set-up was a cross-over design. * P<0.05, ** P<0.01, *** P<0.001 vs oral vehicle. Results are presented as means±SEM.

[2] = biological target: T1, T47D cell calcitonin receptors (Homo sapiens, UniProt P30988); test: Example 4: T47D bioassay, binding of sCT analogs to T47D cell calcitonin receptors (cAMP); format: cell-based; conditions: T47D cells; sCT set at 100% at 1000 pg/mL; various concentrations
T1 construct: This cell line is known to have the following receptors: calcitonin, androgen, progesterone; endogenous in cells; host or cells: T47D (human breast epithelial cell line)
T1 sequence (P30988 25-474): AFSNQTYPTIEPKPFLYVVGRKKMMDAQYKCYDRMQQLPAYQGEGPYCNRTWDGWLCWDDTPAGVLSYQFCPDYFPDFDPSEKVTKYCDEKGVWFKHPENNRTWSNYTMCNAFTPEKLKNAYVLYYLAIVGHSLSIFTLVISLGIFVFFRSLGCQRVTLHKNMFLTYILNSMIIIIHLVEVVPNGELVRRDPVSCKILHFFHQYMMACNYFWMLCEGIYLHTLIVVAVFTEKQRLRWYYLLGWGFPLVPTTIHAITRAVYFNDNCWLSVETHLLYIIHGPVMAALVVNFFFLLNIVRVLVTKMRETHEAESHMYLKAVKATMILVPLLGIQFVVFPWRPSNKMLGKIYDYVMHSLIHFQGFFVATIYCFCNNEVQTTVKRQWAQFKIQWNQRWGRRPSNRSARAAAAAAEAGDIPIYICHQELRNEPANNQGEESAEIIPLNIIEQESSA
Procedure: sCT analogs at various concentrations were tested in a T47D (human breast epithelial cell line) bioassay. This cell line is known to have the following receptors: calcitonin, androgen, progesterone, glucocrticoid, prolactin and estrogen. The results are presented in FIG. 11 as % cAMP binding relative to sCT which was set at 100% cAMP binding at a concentration of 1000 pg/mL.

[3] = Example 7: combination with metformin in Zucker Diabetic Fatty rats, FPG, PPG, HbA1c; format: in vivo, rat; conditions: ZDF rats; 8 weeks once daily; metformin 400 mg/kg/day oral, UGP302 5 μg/kg/day s.c.
Procedure: To assess the potential of UGP302 (SEQ ID NO: 15) in combination with metformin, Zucker Diabetic Fatty rats were used. At the age of 6 weeks 40 rats were randomized into four groups according to HbA1c, FPG and BW. The groups were: Control (Vehicle), Metformin 400 mg/kg/day, UGP302 5 μg/kg/day and the combination of the two molecules in the stated respective amounts. The treatments were given once daily, and metformin was dosed orally, while UGP302 was given subcutaneously, and the animals were treated for 8 weeks. Fasting blood glucose (FPG) and non-fasted blood glucose (PPG) were monitored biweekly, while HbA1c was measured at termination.

Substance: Ac-CSNLSTCVLGKLSQELHKLQTYPRTDVGANAP-NH2 (Ac-CSNLSTCVLGKLSQELHKLQTYPRTDVGANAP-NH2; ends and bridges not checked) [UGP302, calcitonin mimetic]
- glucose tolerance during OGTT [1]: improvement in glucose tolerance
- % cAMP binding relative to sCT [2]: highest level of binding of all the tested compounds
- fasting blood glucose (FPG) [3]: pronounced reduction throughout the study
- non-fasted blood glucose (PPG) [3]: pronounced reduction throughout the study
